# Assay results reported in PubChem BioAssay (NCI).
#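 Growth conditions: 96-well plates. Treatment: test compound, 48 hours, 5 concentrations. Analysis: linear interpolation between bracketing concentrations; unreached endpoints set to highest concentration. The concentration for full growth arrest is given as TGI.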
# Tests used:
# Experiment in all cases: inhibition of tumour cell growth, NCI panel, 48 h
# 786-0 renal = tested on: 786-0 renal
# A498 renal = tested on: A498 renal
# A549 NSCLC = tested on: A549 NSCLC
# ACHN renal = tested on: ACHN renal
# BT-549 breast = tested on: BT-549 breast
# CAKI-1 renal = tested on: CAKI-1 renal
# CCRF-CEM leukemia = tested on: CCRF-CEM leukemia
# COLO 205 colon = tested on: COLO 205 colon
# DU-145 prostate = tested on: DU-145 prostate
# EKVX NSCLC = tested on: EKVX NSCLC
# HCC-2998 colon = tested on: HCC-2998 colon
# HCT-116 colon = tested on: HCT-116 colon
# HCT-15 colon = tested on: HCT-15 colon
# HL-60(TB) leukemia = tested on: HL-60(TB) leukemia
# HOP-62 NSCLC = tested on: HOP-62 NSCLC
# HOP-92 NSCLC = tested on: HOP-92 NSCLC
# HS 578T breast = tested on: HS 578T breast
# HT29 colon = tested on: HT29 colon
# IGROV1 ovarian = tested on: IGROV1 ovarian
# K-562 leukemia = tested on: K-562 leukemia
# KM12 colon = tested on: KM12 colon
# M14 melanoma = tested on: M14 melanoma
# MALME-3M melanoma = tested on: MALME-3M melanoma
# MCF7 breast = tested on: MCF7 breast
# MDA-MB-231 breast = tested on: MDA-MB-231 breast
# MDA-MB-435 = tested on: MDA-MB-435
# MDA-N = tested on: MDA-N
# MOLT-4 leukemia = tested on: MOLT-4 leukemia
# NCI-H226 lung = tested on: NCI-H226 lung
# NCI-H23 lung = tested on: NCI-H23 lung
# NCI-H460 lung = tested on: NCI-H460 lung
# NCI-H522 lung = tested on: NCI-H522 lung
# NCI/ADR-RES ovarian = tested on: NCI/ADR-RES ovarian
# OVCAR-3 ovarian = tested on: OVCAR-3 ovarian
# OVCAR-4 ovarian = tested on: OVCAR-4 ovarian
# OVCAR-5 ovarian = tested on: OVCAR-5 ovarian
# OVCAR-8 ovarian = tested on: OVCAR-8 ovarian
# PC-3 prostate = tested on: PC-3 prostate
# RPMI-8226 leukemia = tested on: RPMI-8226 leukemia
# RXF 393 renal = tested on: RXF 393 renal
# SF-268 CNS = tested on: SF-268 CNS
# SF-295 CNS = tested on: SF-295 CNS
# SF-539 CNS = tested on: SF-539 CNS
# SK-MEL-2 melanoma = tested on: SK-MEL-2 melanoma
# SK-MEL-28 melanoma = tested on: SK-MEL-28 melanoma
# SK-MEL-5 melanoma = tested on: SK-MEL-5 melanoma
# SK-OV-3 ovarian = tested on: SK-OV-3 ovarian
# SN12C renal = tested on: SN12C renal
# SNB-19 CNS = tested on: SNB-19 CNS
# SNB-75 CNS = tested on: SNB-75 CNS
# SR leukemia = tested on: SR leukemia
# SW-620 colon = tested on: SW-620 colon
# T-47D breast = tested on: T-47D breast
# TK-10 renal = tested on: TK-10 renal
# U251 CNS = tested on: U251 CNS
# UACC-257 melanoma = tested on: UACC-257 melanoma
# UACC-62 melanoma = tested on: UACC-62 melanoma
# UO-31 renal = tested on: UO-31 renal
smiles,measurement,setting,value
CC(C)(Oc1ccc(-c2cccc3ccccc23)cc1)C(=O)O,TGI,786-0 renal,> 100 µM
same,TGI,A498 renal,> 100 µM
same,TGI,A549 NSCLC,> 100 µM
same,TGI,ACHN renal,> 100 µM
same,TGI,BT-549 breast,> 100 µM
same,TGI,CAKI-1 renal,> 100 µM
same,TGI,CCRF-CEM leukemia,> 100 µM
same,TGI,COLO 205 colon,> 100 µM
same,TGI,DU-145 prostate,> 100 µM
same,TGI,EKVX NSCLC,> 100 µM
same,TGI,HCC-2998 colon,> 100 µM
same,TGI,HCT-116 colon,> 100 µM
same,TGI,HCT-15 colon,> 100 µM
same,TGI,HL-60(TB) leukemia,30.1 µM
same,TGI,HOP-62 NSCLC,> 100 µM
same,TGI,HOP-92 NSCLC,> 100 µM
same,TGI,HS 578T breast,> 100 µM
same,TGI,HT29 colon,> 100 µM
same,TGI,IGROV1 ovarian,> 100 µM
same,TGI,K-562 leukemia,> 100 µM
same,TGI,KM12 colon,> 100 µM
same,TGI,M14 melanoma,> 100 µM
same,TGI,MALME-3M melanoma,> 100 µM
same,TGI,MCF7 breast,> 100 µM
same,TGI,MDA-MB-231 breast,> 100 µM
same,TGI,MDA-MB-435,> 100 µM
same,TGI,MDA-N,> 100 µM
same,TGI,MOLT-4 leukemia,> 100 µM
same,TGI,NCI-H226 lung,> 100 µM
same,TGI,NCI-H23 lung,> 100 µM
same,TGI,NCI-H460 lung,> 100 µM
same,TGI,NCI-H522 lung,> 100 µM
same,TGI,NCI/ADR-RES ovarian,> 100 µM
same,TGI,OVCAR-3 ovarian,> 100 µM
same,TGI,OVCAR-4 ovarian,> 100 µM
same,TGI,OVCAR-5 ovarian,> 100 µM
same,TGI,OVCAR-8 ovarian,> 100 µM
same,TGI,PC-3 prostate,> 100 µM
same,TGI,RPMI-8226 leukemia,> 100 µM
same,TGI,RXF 393 renal,> 100 µM
same,TGI,SF-268 CNS,> 100 µM
same,TGI,SF-295 CNS,> 100 µM
same,TGI,SF-539 CNS,> 100 µM
same,TGI,SK-MEL-2 melanoma,> 100 µM
same,TGI,SK-MEL-28 melanoma,> 100 µM
same,TGI,SK-MEL-5 melanoma,> 100 µM
same,TGI,SK-OV-3 ovarian,> 100 µM
same,TGI,SN12C renal,> 100 µM
same,TGI,SNB-19 CNS,> 100 µM
same,TGI,SNB-75 CNS,> 100 µM
same,TGI,SR leukemia,> 100 µM
same,TGI,SW-620 colon,> 100 µM
same,TGI,T-47D breast,> 100 µM
same,TGI,TK-10 renal,> 100 µM
same,TGI,U251 CNS,> 100 µM
same,TGI,UACC-257 melanoma,> 100 µM
same,TGI,UACC-62 melanoma,> 100 µM
same,TGI,UO-31 renal,> 100 µM
